Consider ten compounds from ChEMBL document CHEMBL1641384, “QSAR of adenosine receptor antagonists: Exploring physicochemical requirements for binding of pyrazolo[4,3-e]-1,2,4-triazolo[1,5-c]pyrimidine derivatives with human adenosine A(3) receptor subtype” (Bioorg Med Chem Lett, 2011).

SMILES strings stand for the structures.

The target in the test is T1, Adenosine receptor A3 (Homo sapiens, UniProt P0DMS8).
T1 sequence (P0DMS8 whole entry): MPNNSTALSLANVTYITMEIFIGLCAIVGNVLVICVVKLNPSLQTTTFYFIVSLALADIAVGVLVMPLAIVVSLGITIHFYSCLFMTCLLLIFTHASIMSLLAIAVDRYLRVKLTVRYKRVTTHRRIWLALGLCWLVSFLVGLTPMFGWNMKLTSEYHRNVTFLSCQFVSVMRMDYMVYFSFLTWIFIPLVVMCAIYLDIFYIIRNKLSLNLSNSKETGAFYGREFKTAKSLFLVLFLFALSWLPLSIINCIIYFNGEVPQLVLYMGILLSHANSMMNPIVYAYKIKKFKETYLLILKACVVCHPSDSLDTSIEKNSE
As to the kind of experiment: Displacement of [3H]MRE3008-F20 from human adenosine A3 receptor expressed in CHO cells after 120 mins. The class given is cell-based. (In general: In a radioligand displacement assay an active substance lowers the binding of a labelled ligand.)
A word on the Ki: it is the equilibrium dissociation constant of an inhibitor or competing ligand from its target. A lower Ki goes with tighter binding. `CCn1cc2c(nc(N)n3nc(-c4ccco4)nc23)n1` gave a Ki of 407000 pM. In other words, the sub-micromolar range.
For `CCCn1cc2c(nc(NC(=O)Nc3cccc(Cl)c3)n3nc(-c4ccco4)nc23)n1` the value was 1580 pM; for `CCn1cc2c(nc(NC(=O)Nc3cccc(Cl)c3)n3nc(-c4ccco4)nc23)n1`, 912 pM; for `Cn1cc2c(nc(NC(=O)Nc3ccc4c(c3)OCO4)n3nc(-c4ccco4)nc23)n1`, 240 pM.
`CCn1cc2c(nc(NC(=O)Nc3ccc4c(c3)OCO4)n3nc(-c4ccco4)nc23)n1` showed a Ki of 269 pM.
Compound `CCCn1cc2c(nc(NC(=O)Nc3ccc4c(c3)OCO4)n3nc(-c4ccco4)nc23)n1` had a Ki of 302 pM.
Then `CCCCn1cc2c(nc(NC(=O)Nc3ccc4c(c3)OCO4)n3nc(-c4ccco4)nc23)n1`, with 501 pM; and `CCCCCCCCn1cc2c(nc(NC(=O)Nc3ccc(C)cc3)n3nc(-c4ccco4)nc23)n1`, with 4070 pM.
For `CCCn1cc2c(nc(N)n3nc(-c4ccco4)nc23)n1` the value was 331000 pM.
For `CCn1cc2c(nc(NC(=O)Nc3ccc(OC)cc3)n3nc(-c4ccco4)nc23)n1` the value was 794 pM.
